Values of other authors as cited in patent US20110152294A1, “USE OF OSMOLYTES OBTAINED FROM EXTREMOPHILIC BACTERIA FOR THE PRODUCTION OF INHALABLE MEDICAMENTS FOR THE PROPHYLAXIS AND TREATMENT OF PULMONARY AND CARDIOVASCULAR DISEASES AND AN INHALATION DEVICE COMPRISING OSMOLYTE AS ACTIVE AGENT COMPONENT” (priority 2003, published 2011).

Tested on: cornea and iris of the eyes of rabbits
Conditions: external application on cornea and iris of rabbit eyes; effects disappeared afterwards

SMILES: CC1=NC[C@H](O)[C@@H](C(=O)O)N1 [hydroxyectoine]
- eye irritation after external application: initial irritation and sensitization of the conjunctiva
